According to US20200138827A1, “SMALL MOLECULE MODULATORS OF HUMAN STING” (Curadev Pharma Limited, priority 2017, published 2020):
pEC50: −log10 of the molar value. Read-outs that look alike come from different tables or passages of the source.

Assays:
WT/R232 STING protein = target: T1, WT/R232 STING protein (Homo sapiens, UniProt Q86WV6, H232R); assay: Luciferase reporter assay in HEK293T-hSTING-Luciferase cells, WT/R232; assay type: cell-based; details: 20 hr stimulation, read-out: R232 Activity (EC50 range)
T1 construct: host or cells: HEK293T
Summary of the method: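 Clonal HEK293T cells stably expressing human STING R232 plus an ISRE/ISG54-driven luciferase reporter, 5×10^5 per well, stimulated with compounds for 20 h. Secreted luciferase in supernatant measured by luminescence; […].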

hSTING(H232) = target: T2, hSTING(H232) (Homo sapiens, UniProt Q86WV6); assay: Luciferase reporter assay in HEK293T-hSTING-Luciferase cells, H232 polymorph; assay type: cell-based; details: 20 hr stimulation, read-out: H232 activity (EC50 range)
T2 construct: host or cells: HEK293T
Summary of the method: (§1)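 HEK293T clones stably expressed the given human STING variant plus luciferase under an ISRE/ISG54 IRF-inducible promoter. 5×10^5 cells were stimulated with compound for 20 hr, and secreted luciferase in the supernatant was measured by Quanti-Luc luminescence.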

hSTING(HAQ) = target: T3, hSTING(HAQ) (Homo sapiens, UniProt Q86WV6, G230A/H232R/R293Q/R71H); assay: Luciferase reporter assay in HEK293T-hSTING-Luciferase cells, HAQ polymorph; assay type: cell-based; details: 20 hr stimulation, read-out: HAQ activity (EC50 range)
T3 construct: host or cells: HEK293T
Summary of the method: as §1

IRF pathway = assay: Reporter gene expression assay in THP1-Dual cells, IRF axis (secreted Lucia luciferase); assay type: cell-based, human; details: read-out: THP-IRF activity (EC50 range)
Summary of the method: (§2)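 THP-1-derived cells carrying inducible NF-κB-SEAP and IRF-Lucia reporters, seeded at 5×10^5 and stimulated with compounds. After […], supernatant SEAP read with QUANTI-Blue and Lucia luciferase with QUANTI-Luc.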

NF-κB pathway = assay: Reporter gene expression assay in THP1-Dual cells, NFkB axis (secreted SEAP); assay type: cell-based, human; details: read-out: THP-NFKB activity (EC50 range)
Summary of the method: as §2

T2 sequence (Q86WV6 whole entry): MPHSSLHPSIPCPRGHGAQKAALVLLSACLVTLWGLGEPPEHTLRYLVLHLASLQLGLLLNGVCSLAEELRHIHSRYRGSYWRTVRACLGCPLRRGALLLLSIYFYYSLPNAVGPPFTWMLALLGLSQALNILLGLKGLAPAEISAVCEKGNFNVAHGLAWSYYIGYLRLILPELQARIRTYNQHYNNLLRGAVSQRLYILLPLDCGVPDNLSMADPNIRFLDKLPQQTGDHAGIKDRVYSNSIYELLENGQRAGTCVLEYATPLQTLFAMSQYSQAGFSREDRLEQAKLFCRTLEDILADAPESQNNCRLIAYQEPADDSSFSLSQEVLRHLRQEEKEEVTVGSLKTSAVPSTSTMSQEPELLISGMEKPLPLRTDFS
T3 sequence (Q86WV6 whole entry R71H/G230A/H232R/R293Q): as the sequence (Q86WV6 whole entry) above, with R71H, G230A, H232R, R293Q counted along it
T1 sequence (Q86WV6 whole entry H232R): as the sequence (Q86WV6 whole entry) above, with H232R counted along it

Row | SMILES | pEC50 (WT/R232 STING protein) | pEC50 (hSTING(H232)) | pEC50 (hSTING(HAQ)) | pEC50 (IRF pathway; Homo sapiens, THP1-Dual) | pEC50 (NF-κB pathway; Homo sapiens, THP1-Dual) | pEC50 (IRF pathway) | pEC50 (NF-κB pathway)
1 | O=C(NCc1c(F)cccc1F)c1ccc2c(c1)N(Cc1c(F)cccc1Cl)C(=O)CS2 [Example 31, 4-(2-chloro-6-fluorobenzyl)-N-(2,6-difluorobenzyl)-3-oxo-3,4-dihydro-2H-benzo[b-1,4]thiazine 6-carboxamide] | > 6.00 | > 6.00 | 5.00 to 6.00 | < 5.00 | < 5.00 |  | 
2 | Cc1cccc(CNC(=O)c2ccc3c(c2)N(Cc2ccccc2F)C(=O)C(C)S3)c1 (centres unmarked) [Example 141, 4-(2-fluorobenzyl)-2-methyl-N-(3-methylbenzyl)-3-oxo-3,4-dihydro-2H-benzo[b-1,4]thiazine-6-carboxamide] | > 6.00 | 5.00 to 6.00 | > 6.00 | 5.00 to 6.00 | 5.00 to 6.00 |  | 
3 | CC1Sc2ncc(C(=O)NCc3ccccc3)cc2N(Cc2c(F)cccc2Cl)C1=O (centres unmarked) [Example 201, N-benzyl-1-(2-chloro-6-fluorobenzyl)-3-methyl-2-oxo-2,3-dihydro-1H-pyrido[2,3-b][1,4]thiazine-7-carboxamide] | 5.00 to 6.00 | 5.00 to 6.00 | 5.00 to 6.00 | < 5.00 | < 5.00 |  | 
4 | Cc1ccc(CNC(=O)c2ccc3c(n2)N(Cc2cc(F)cc(F)c2)C(=O)C(C)S3)o1 (centres unmarked) [Example 203, 4-(3,5-difluorobenzyl)-2-methyl-N-((5-methylfuran-2-yl)methyl)-3-oxo-3,4-dihydro-2H-pyrido[3,2-b][1,4]thiazine-6-carboxamide] | 5.00 to 6.00 | 5.00 to 6.00 | 5.00 to 6.00 |  |  | < 5.00 | < 5.00
5 | O=C(NCc1c(F)cc(F)cc1F)c1ccc2c(c1)N(Cc1c(F)cccc1Cl)C(=O)CS2 [Example 112, 4-(2-chloro-6-fluorobenzyl)-3-oxo-N-(2,4,6-trifluorobenzyl)-3,4-dihydro-2H-benzo[b-1,4]thiazine-6-carboxamide] | > 6.00 | > 6.00 | > 6.00 | < 5.00 | < 5.00 |  | 
6 | CC1Cc2ccc(C(=O)NCc3c(F)cc(F)cc3F)cc2N(Cc2c(F)cccc2Cl)C1=O (centres unmarked) [Example 267, 1-(2-Chloro-6-fluorobenzyl)-3-methyl-2-oxo-N-(2,4,6-trifluorobenzyl)-1,2,3,4-tetrahydroquinoline-7-carboxamide] | > 6.00 | > 6.00 | > 6.00 | 5.00 to 6.00 | 5.00 to 6.00 |  | 
7 | Cc1cccc(CNC(=O)c2ccc3c(c2)N(Cc2c(F)cccc2Cl)C(=O)CS3)c1 [Example 37, 4-(2-chloro-6-fluorobenzyl)-N-(3-methylbenzyl)-3-oxo-3,4-dihydro-2H-benzo[b-1,4]thiazine-6-carboxamide] | > 6.00 | 5.00 to 6.00 | < 5.00 | < 5.00 | < 5.00 |  | 
8 | Cc1cc(CN2C(=O)CSc3ccc(C(=O)NCc4ccco4)cc32)cc(C(F)(F)F)c1 [Example 83, N-(furan-2-ylmethyl)-4-(3-methyl-5-(trifluoromethyl)benzyl)-3-oxo-3,4-dihydro-2H-benzo[b-1,4]thiazine-6-carboxamide] | 5.00 to 6.00 | < 5.00 | < 5.00 | < 5.00 | < 5.00 |  | 
9 | CC1Sc2ccc(C(=O)NCc3c(F)cc(F)cc3F)cc2N(Cc2cccc(C(N)=O)c2)C1=O (centres unmarked) [Example 160, 4-(3-carbamoylbenzyl)-2-methyl-3-oxo-N-(2,4,6-trifluorobenzyl)-3,4-dihydro-2H-benzo[b][1,4] thiazine-6-carboxamide] | > 6.00 | < 5.00 | < 5.00 | < 5.00 | < 5.00 |  | 
10 | CC1(C)Sc2ccc(C(=O)NCc3cc4ccccc4o3)cc2N(Cc2c(F)cccc2Cl)C1=O [Example 154, N-(benzofuran-2-ylmethyl)-4-(2-chloro-6-fluorobenzyl)-2,2-dimethyl-3-oxo-3,4-dihydro-2H-benzo[b][1,4] thiazine-6-carboxamide] | > 6.00 | 5.00 to 6.00 | > 6.00 | 5.00 to 6.00 | 5.00 to 6.00 |  | 
11 | Cc1ccc(CNC(=O)c2ccc3c(n2)N(Cc2cc(F)cc(F)c2)C(=O)C(C)S3)o1 (centres unmarked) [Example 190, 4-(3,5-difluorobenzyl)-2-methyl-N-((5-methylfuran-2-yl)methyl)-3-oxo-3,4-dihydro-2H-pyrido[3,2-b-1,4]thiazine-6-carboxamide] | > 6.00 | 5.00 to 6.00 | 5.00 to 6.00 |  |  | 5.00 to 6.00 | 5.00 to 6.00
12 | CC1Sc2ccc(C(=O)NCc3c(F)cc(F)cc3F)cc2N(Cc2cc(F)cc(F)c2)C1=O (centres unmarked) [Example 153, 4-(3,5-difluorobenzyl)-2-methyl-3-oxo-N-(2,4,6-trifluorobenzyl)-3,4-dihydro-2H-benzo[b][1,4] thiazine-6-carboxamide] | > 6.00 | 5.00 to 6.00 | 5.00 to 6.00 | 5.00 to 6.00 | 5.00 to 6.00 |  | 
13 | O=C(NCc1ccco1)c1ccc2c(c1)N(Cc1cccc(F)c1F)C(=O)CS2 [Example 82, 4-(2,3-difluorobenzyl)-N-(furan-2-ylmethyl)-3-oxo-3,4-dihydro-2H-benzo[b-1,4]thiazine-6-carboxamide] | 5.00 to 6.00 | 5.00 to 6.00 | 5.00 to 6.00 | < 5.00 | < 5.00 |  | 
14 | CC1(C)CC(=O)N(Cc2cc(F)cc(F)c2)c2cc(C(=O)NCc3c(F)cc(F)cc3F)ccc21 [Example 271, 1-(3,5-difluorobenzyl)-4,4-dimethyl-2-oxo-N-(2,4,6-trifluorobenzyl)-1,2,3,4-tetrahydroquinoline-7-carboxamide] | > 6.00 | > 6.00 | > 6.00 | 5.00 to 6.00 | 5.00 to 6.00 |  | 
15 | O=C(NCc1c(F)cc(F)cc1F)c1ccc2c(c1)N(Cc1cc(F)cc(F)c1)S(=O)(=O)CC2 [Example 284, 1-(3,5-Difluorobenzyl)-N-(2,4,6-trifluorobenzyl)-3,4-dihydro-1H-benzo[c][1,2]thiazine-7-carboxamide 2,2-dioxide] | > 6.00 | < 5.00 | < 5.00 | < 5.00 | < 5.00 |  | 
16 | CC1Sc2ccc(C(=O)NCc3c(F)cc(F)cc3F)cc2N(Cc2ccncc2)C1=O (centres unmarked) [Example 157, 2-methyl-3-oxo-4-(pyridin-4-ylmethyl)-N-(2,4,6-trifluorobenzyl)-3,4-dihydro-2H-benzo[b][1,4] thiazine-6-carboxamide] | > 6.00 | 5.00 to 6.00 | 5.00 to 6.00 | 5.00 to 6.00 | 5.00 to 6.00 |  | 
